This assay relates to Human Tenon's capsule fibroblasts (HTCF). The experiment in a line: Oxidative stressor dosage curve, cell metabolic activity (MTT) of HTCF. It is filed as cell-based. Conditions: one-hour incubation, dose-dependent, n=4. The protocol:
The following preferred method was utilized in conducting the experiment: • 1) Culture cells (90% confluence) • 2) Load 5×10^4 cells/well in 24-well plates • 3) Change to serum-free medium overnight • 4) Treat cells • 5) Measure cell metabolic activity (MTT) or % cytotoxicity (LDH) • 6) Normalize results • 7) Replicate experiment with cell lines from different patients • 8) Conduct statistical analysis
1. Treat cells with serum free medium and tert-butyl hydroperoxide (t-BOOH) at 0 mM (VC), […], 0.1 mM, 0.5 mM, 1 mM and 2 mM for 30 min, 1 h, 2 h, 3 h
2. Measure cell metabolic activity with 3-(4,5-dimethylthiazol-2-yl)-2,5-diphenyltetrazolium bromide (MTT) assay
FIGS. 5A-5D show the cell metabolic activity of HTCF cells in response to treatment with tert-butyl hydroperoxide (t-BOOH).
Dose-dependent effect of a one-hour incubation.

For the molecule `CC(C)(C)OO` [tert-butyl hydroperoxide (t-BOOH), Tert-butyl hydroperoxide], the “cell metabolic activity versus control sample” value is given as “significant effect versus the control sample”.

The record behind these values is patent US20230398095A1, “THERAPEUTIC AGENT FOR TREATMENT OF AGE-RELATED MACULAR DEGENERATION” (priority 2022, published 2023).
